Drawing on patent US8933066B2, “Compounds for the treatment of hepatitis C” (priority 2011, dated 2015), this text covers EC50 for four molecules.

A word on the EC50: it is the concentration at which the effect is half-maximal.

The subject of the experiment is HCV pseudoparticles (genotype 1a HCV E1 and E2 envelope, H77C isolate). As to the kind of experiment: HCV pseudoparticle infection assay (luciferase reporter, entry into Huh7 cells). The class given is cell-based. The following applies: Hepatitis C virus, Huh-7, 48 h. A general note: In a reporter assay the amount or activity of a reporter protein is the signal.
Where [1] appears, read: read-out: Activity Range (EC50).

Each structure is given as a SMILES string. Read-outs that look alike come from different tables or passages of the source.

With `FC(F)(F)COc1nc2nc(n1)Nc1cnn(c1)CCOCCOCCOc1ccc(cc1)CN2` [Example 2002], under setting [1], the EC50 is 0.1 to 500 nM. On the same count and under the same terms, for `FC(F)(F)COc1nc2nc(n1)Nc1cnn(c1)CCNCCCOc1ccc(cc1)CN2` [Example 2006] the value was 0.1 to 500 nM. In turn, `CC(C)(C)NC(=O)N1CCCOc2ccc(cc2)CNc2nc(nc(OCC(F)(F)F)n2)Nc2cnn(c2)CC1` [Example 2007] had an EC50 of 105 nM. Moreover, the EC50 under setting [1] was in the range of 0.1 to 500 nM. As for `FC(F)(F)COc1nc2nc(n1)Nc1cnn(c1)CCCCCCOc1ccc(cc1)CN2` [Example 3001], the EC50 under setting [1] was in the range of 0.1 to 500 nM.
